The values that follow come from paper PMC4890880 (ACS infectious diseases, 2016).

Where two headings read alike, the source gives them in different places.

The test system of experiment [1] is Plasmodium berghei (Pb-Luc) exoerythrocytic-stage parasites. The settings on record: for normalized signal at concentration 10 / normalized signal at concentration 0.000508053 / normalized signal at concentration 0.00152416 / normalized signal at concentration 0.00457247 / normalized signal at concentration 0.0137174 / normalized signal at concentration 0.0411523 / normalized signal at concentration 0.123457 / normalized signal at concentration 0.37037 / normalized signal at concentration 1.11111 / normalized signal at concentration 3.33333: fraction of control; for IC50: read-out: PbLuc_IC50, Broad compounds.

A further experiment deals with HepG2-A16-CD81EGFP cells. Particulars: for IC50: read-out: Tox_IC50, HepG2 cytotoxicity.
Setting [2] is: sheet 2nd round, maximal inhibition in dose response.

With `C[C@H]1CCCCO[C@H](CN(C)S(=O)(=O)c2ccc(F)cc2)[C@@H](C)CN([C@@H](C)CO)C(=O)c2cc(N(C)C)ccc2O1` [BRD-K38571893-001-01-9], the “normalized signal at concentration 10” value in experiment [1] (first series of dose-response columns) stood at 0.89. Further, in experiment [1] (first series), the “normalized signal at concentration 0.000508053” value stood at 0.97, the “normalized signal at concentration 0.00152416” value is on record as 0.98, the “normalized signal at concentration 0.00457247” value was 0.90 and the “normalized signal at concentration 0.0137174” value is reported as 0.78. In experiment [1] (first series), the “normalized signal at concentration 0.0411523” value worked out at 1.07, the “normalized signal at concentration 0.123457” value was determined as 1.18, the “normalized signal at concentration 0.37037” value worked out at 0.95 and the “normalized signal at concentration 1.11111” value came to 0.97. Further, the “normalized signal at concentration 3.33333” value in experiment [1] (first series) was 0.87. Moreover, the IC50 in experiment [1] (sheet 2nd round, dose response) was greater than 10 µM. Further, the “normalized signal at concentration 10” value in experiment [1] (second series of dose-response columns) is reported as 0.80. In addition, in experiment [1] (second series), the “normalized signal at concentration 0.000508053” value came to 1.11, the “normalized signal at concentration 0.00152416” value was 0.83, the “normalized signal at concentration 0.00457247” value turned out to be 0.98 and the “normalized signal at concentration 0.0137174” value turned out to be 1.18. Also, in experiment [1] (second series), the “normalized signal at concentration 0.0411523” value is listed as 1.02, the “normalized signal at concentration 0.123457” value worked out at 1.25, the “normalized signal at concentration 0.37037” value is on record as 0.98 and the “normalized signal at concentration 1.11111” value is given as 1.04. In experiment [1] (second series), the “normalized signal at concentration 3.33333” value came to 0.97. Further, the “PbLuc_max_inhibition (%)” value in experiment [1] (setting [2]) was determined as 22%. In the experiment with HepG2-A16-CD81EGFP cells (sheet 2nd round), the IC50 is greater than 10 µM. Besides, the “Tox_max_inhibition (%)” value with HepG2-A16-CD81EGFP cells (setting [2]) was -2.16%.
Take `C[C@@H]1CN([C@@H](C)CO)C(=O)c2cccc(NC(=O)c3ccc(-c4nccs4)cc3)c2O[C@@H]1CN(C)C(=O)Nc1ccc(C(F)(F)F)cc1` [BRD-K43504903-001-01-1]: the “normalised signal at concentration 0.000508053 (first series)” value in experiment [1] (concentration 0.000508053, first series) amounted to 0.8756. The “normalised signal at concentration 0.000508053 (second series)” value in experiment [1] (concentration 0.000508053, second series) was 0.7942. Also, the “normalised signal at concentration 0.00152416 (first series)” value in experiment [1] (concentration 0.00152416, first series) is on record as 0.8514. Further, the “normalised signal at concentration 0.00152416 (second series)” value in experiment [1] (concentration 0.00152416, second series) was determined as 0.7934. In addition, the “normalised signal at concentration 0.00457247 (first series)” value in experiment [1] (concentration 0.00457247, first series) stood at 0.8815. The “normalised signal at concentration 0.00457247 (second series)” value in experiment [1] (concentration 0.00457247, second series) is on record as 0.6886. Also, the “normalised signal at concentration 0.0137174 (first series)” value in experiment [1] (concentration 0.0137174, first series) is 0.7217. Also, in experiment [1] (concentration 0.0137174, second series), the “normalised signal at concentration 0.0137174 (second series)” value is on record as 0.708. Further, the “normalised signal at concentration 0.0411523 (first series)” value in experiment [1] (concentration 0.0411523, first series) was 0.6989. Also, the “normalised signal at concentration 0.0411523 (second series)” value in experiment [1] (concentration 0.0411523, second series) was 0.7835. In addition, the “normalised signal at concentration 0.123457 (first series)” value in experiment [1] (concentration 0.123457, first series) amounted to 0.7701. Besides, the “normalised signal at concentration 0.123457 (second series)” value in experiment [1] (concentration 0.123457, second series) is reported as 0.8493. Moreover, the “normalised signal at concentration 0.37037 (first series)” value in experiment [1] (concentration 0.37037, first series) was 0.9239. In experiment [1] (concentration 0.37037, second series), the “normalised signal at concentration 0.37037 (second series)” value is listed as 0.7292. Moreover, in experiment [1] (concentration 1.11111, first series), the “normalised signal at concentration 1.11111 (first series)” value is given as 0.7039. For the same molecule, in experiment [1] (concentration 1.11111, second series), the “normalised signal at concentration 1.11111 (second series)” value is on record as 0.8779. Also, the “normalised signal at concentration 3.33333 (first series)” value in experiment [1] (concentration 3.33333, first series) came out at 0.8563. Moreover, in experiment [1] (concentration 3.33333, second series), the “normalised signal at concentration 3.33333 (second series)” value came to 1.012. Besides, the “normalised signal at concentration 10 (first series)” value in experiment [1] (concentration 10, first series of dose columns) turned out to be 0.4042. In addition, the “normalised signal at concentration 10 (second series)” value in experiment [1] (concentration 10, second series of dose columns) was found to be 0.5157. In addition, in experiment [1] (sheet "2nd round", dose response top concentration 10), the IC50 was greater than 10 µM. Moreover, the “PbLuc_max_inhibition (%)” value in experiment [1] (sheet "2nd round") is listed as 60%. Further, in the experiment with HepG2-A16-CD81EGFP cells (sheet "2nd round"), the IC50 is greater than 10 µM and the “Tox_max_inhibition (%)” value was determined as 21%.
